What was measured:
Type in all cases: functional
[1] = tested on: OVCAR-8; assay: Growth inhibition of human OVCAR8 cells assessed as cell growth at 3X10'-7 M after 48 hrs by sulforhodamine B assay; conditions: OVCAR-8, 48 h, read-out: Activity
[2] = tested on: MDA-MB-435; assay: Growth inhibition of human MDA-MB-435 cells assessed as cell growth at 3X10'-7 M after 48 hrs by sulforhodamine B assay; conditions: MDA-MB-435, 48 h, read-out: Activity
[3] = tested on: M14; assay: Growth inhibition of human M14 cells assessed as cell growth at 3X10'-7 M after 48 hrs by sulforhodamine B assay; conditions: M14, 48 h, read-out: Activity
[4] = tested on: HCT-116; assay: Growth inhibition of human HCT116 cells assessed as cell growth at 3X10'-7 M after 48 hrs by sulforhodamine B assay; conditions: HCT-116, 48 h, read-out: Activity
[5] = Growth inhibition of human HCC2998 cells assessed as cell growth at 3X10'-7 M after 48 hrs by sulforhodamine B assay; conditions: HCC 2998, 48 h, read-out: Activity
[6] = tested on: T47D; assay: Growth inhibition of human T47D cells assessed as cell growth at 3X10'-8 M after 48 hrs by sulforhodamine B assay; conditions: read-out: Activity
[7] = tested on: DU-145; assay: Growth inhibition of human DU145 cells assessed as cell growth at 3X10'-8 M after 48 hrs by sulforhodamine B assay; conditions: DU-145, 48 h, read-out: Activity
[8] = tested on: CAKI-1; assay: Growth inhibition of human CAKI-1 cells assessed as cell growth at 3X10'-8 M after 48 hrs by sulforhodamine B assay; conditions: CAKI-1, 48 h, read-out: Activity
[9] = tested on: MDA-MB-468; assay: Growth inhibition of human MDA-MB-468 cells assessed as cell growth at 3X10'-5 M after 48 hrs by sulforhodamine B assay; conditions: MDA-MB-468, 48 h, read-out: Activity
[10] = tested on: T47D; assay: Growth inhibition of human T47D cells assessed as cell growth at 3X10'-5 M after 48 hrs by sulforhodamine B assay; conditions: read-out: Activity
[11] = tested on: MDA-MB-231; assay: Growth inhibition of human MDA-MB-231 cells assessed as cell growth at 3X10'-5 M after 48 hrs by sulforhodamine B assay; conditions: MDA-MB-231, 48 h, read-out: Activity
[12] = tested on: OVCAR-3; assay: Growth inhibition of human OVCAR3 cells assessed as cell growth at 3X10'-8 M after 48 hrs by sulforhodamine B assay; conditions: OVCAR-3, 48 h, read-out: Activity
[13] = tested on: UACC-257; assay: Growth inhibition of human UACC257 cells assessed as cell growth at 3X10'-8 M after 48 hrs by sulforhodamine B assay; conditions: UACC-257, 48 h, read-out: Activity
[14] = tested on: MDA-MB-435; assay: Growth inhibition of human MDA-MB-435 cells assessed as cell growth at 3X10'-8 M after 48 hrs by sulforhodamine B assay; conditions: MDA-MB-435, 48 h, read-out: Activity
[15] = tested on: SF-295; assay: Growth inhibition of human SF295 cells assessed as cell growth at 3X10'-8 M after 48 hrs by sulforhodamine B assay; conditions: SF-295, 48 h, read-out: Activity
[16] = tested on: HT-29; assay: Growth inhibition of human HT-29 cells assessed as cell growth at 3X10'-8 M after 48 hrs by sulforhodamine B assay; conditions: HT-29, 48 h, read-out: Activity
[17] = tested on: HOP-62; assay: Growth inhibition of human HOP62 cells assessed as cell growth at 3X10'-8 M after 48 hrs by sulforhodamine B assay; conditions: HOP-62, 48 h, read-out: Activity
[18] = tested on: A549; assay: Growth inhibition of human A549/ATCC cells assessed as cell growth at 3X10'-8 M after 48 hrs by sulforhodamine B assay; conditions: A549, 48 h, read-out: Activity
[19] = Growth inhibition of human Hs 578T cells assessed as cell growth at 3X10'-9 M after 48 hrs by sulforhodamine B assay; conditions: read-out: Activity
[20] = tested on: CAKI-1; assay: Growth inhibition of human CAKI-1 cells assessed as cell growth at 3X10'-5 M after 48 hrs by sulforhodamine B assay; conditions: CAKI-1, 48 h, read-out: Activity
[21] = Growth inhibition of human NCI-ADR-RES cells assessed as cell growth at 3X10'-5 M after 48 hrs by sulforhodamine B assay; conditions: read-out: Activity
[22] = tested on: A498; assay: Growth inhibition of human A498 cells assessed as cell growth at 3X10'-9 M after 48 hrs by sulforhodamine B assay; conditions: A498, 48 h, read-out: Activity
[23] = tested on: UACC-257; assay: Growth inhibition of human UACC257 cells assessed as cell growth at 3X10'-5 M after 48 hrs by sulforhodamine B assay; conditions: UACC-257, 48 h, read-out: Activity
[24] = tested on: SK-MEL-5; assay: Growth inhibition of human SK-MEL-5 cells assessed as cell growth at 3X10'-5 M after 48 hrs by sulforhodamine B assay; conditions: SK-MEL-5, 48 h, read-out: Activity
[25] = tested on: SK-MEL-2; assay: Growth inhibition of human SK-MEL-2 cells assessed as cell growth at 3X10'-5 M after 48 hrs by sulforhodamine B assay; conditions: SK-MEL-2, 48 h, read-out: Activity
[26] = tested on: HT-29; assay: Growth inhibition of human HT-29 cells assessed as cell growth at 3X10'-5 M after 48 hrs by sulforhodamine B assay; conditions: HT-29, 48 h, read-out: Activity
[27] = tested on: DU-145; assay: Growth inhibition of human DU145 cells assessed as cell growth at 3X10'-6 M after 48 hrs by sulforhodamine B assay; conditions: DU-145, 48 h, read-out: Activity
[28] = tested on: MDA-MB-435; assay: Growth inhibition of human MDA-MB-435 cells assessed as cell growth at 3X10'-9 M after 48 hrs by sulforhodamine B assay; conditions: MDA-MB-435, 48 h, read-out: Activity
[29] = tested on: Malme-3M; assay: Growth inhibition of human MALME-3M cells assessed as cell growth at 3X10'-9 M after 48 hrs by sulforhodamine B assay; conditions: read-out: Activity
[30] = tested on: HOP-92; assay: Growth inhibition of human HOP92 cells assessed as cell growth at 3X10'-9 M after 48 hrs by sulforhodamine B assay; conditions: HOP-92, 48 h, read-out: Activity
[31] = tested on: OVCAR-3; assay: Growth inhibition of human OVCAR3 cells assessed as cell growth at 3X10'-6 M after 48 hrs by sulforhodamine B assay; conditions: OVCAR-3, 48 h, read-out: Activity
[32] = tested on: Malme-3M; assay: Growth inhibition of human MALME-3M cells assessed as cell growth at 3X10'-6 M after 48 hrs by sulforhodamine B assay; conditions: read-out: Activity
[33] = tested on: SW-620; assay: Growth inhibition of human SW620 cells assessed as cell growth at 3X10'-6 M after 48 hrs by sulforhodamine B assay; conditions: SW-620, 48 h, read-out: Activity
[34] = tested on: A549; assay: Growth inhibition of human A549/ATCC cells assessed as cell growth at 3X10'-6 M after 48 hrs by sulforhodamine B assay; conditions: A549, 48 h, read-out: Activity
[35] = tested on: MCF7; assay: Growth inhibition of human MCF7 cells assessed as cell growth at 3X10'-7 M after 48 hrs by sulforhodamine B assay; conditions: MCF7, 48 h, read-out: Activity
[36] = tested on: UO-31; assay: Growth inhibition of human UO31 cells assessed as cell growth at 3X10'-7 M after 48 hrs by sulforhodamine B assay; conditions: UO-31, 48 h, read-out: Activity
[37] = tested on: CAKI-1; assay: Growth inhibition of human CAKI-1 cells assessed as cell growth at 3X10'-7 M after 48 hrs by sulforhodamine B assay; conditions: CAKI-1, 48 h, read-out: Activity

Row | Structure (SMILES) | growth at 0.3 µM [1] | growth at 0.3 µM [2] | growth at 0.3 µM [3] | growth at 0.3 µM [4] | growth at 0.3 µM [5] | growth at 0.03 µM [6] | growth at 0.03 µM [7] | growth at 0.03 µM [8] | growth at 30 µM [9] | growth at 30 µM [10] | growth at 30 µM [11] | growth at 0.03 µM [12] | growth at 0.03 µM [13] | growth at 0.03 µM [14] | growth at 0.03 µM [15] | growth at 0.03 µM [16] | growth at 0.03 µM [17] | growth at 0.03 µM [18] | growth at 0.003 µM [19] | growth at 30 µM [20] | further results
1 | COc1cc(-c2nn(-c3cccc(NC(=O)Nc4ccc(Cl)c(C(F)(F)F)c4)c3)cc2-c2ccncc2)ccc1Cl | 97% | 91% | 100% | 99% | 101% | 101% | 105% | 94% | -38% | 8% | -76% | 109% | 90% | 92% | 90% | 106% | 95% | 94% | 90% | -20% | growth at 30 µM [21]: -5%; growth at 0.003 µM [22]: 90%; growth at 30 µM [23]: -53%; growth at 30 µM [24]: -94%; growth at 30 µM [25]: -64%; growth at 30 µM [26]: -63%; growth at 3 µM [27]: 23%; growth at 0.003 µM [28]: 98%; growth at 0.003 µM [29]: 112%; growth at 0.003 µM [30]: 68%; growth at 3 µM [31]: -14%; growth at 3 µM [32]: -16%; growth at 3 µM [33]: 17%; growth at 3 µM [34]: 11%; growth at 0.3 µM [35]: 87%; growth at 0.3 µM [36]: 85%; growth at 0.3 µM [37]: 93%
2 | COc1cc(-c2nn(-c3cccc(NC(=O)c4ccc(Cl)c(C(F)(F)F)c4)c3)cc2-c2ccncc2)ccc1Cl | 93% | 87% | 94% | 100% | 101% | 96% | 100% | 93% | 9% | 18% | 3% | 104% | 102% | 97% | 94% | 99% | 96% | 98% | 93% | 12% | growth at 30 µM [21]: -19%; growth at 0.003 µM [22]: 95%; growth at 30 µM [23]: 32%; growth at 30 µM [24]: -51%; growth at 30 µM [25]: -10%; growth at 30 µM [26]: 3%; growth at 3 µM [27]: 67%; growth at 0.003 µM [28]: 95%; growth at 0.003 µM [29]: 80%; growth at 0.003 µM [30]: 94%; growth at 3 µM [31]: 43%; growth at 3 µM [32]: 20%; growth at 3 µM [33]: 55%; growth at 3 µM [34]: 44%; growth at 0.3 µM [35]: 89%; growth at 0.3 µM [36]: 47%; growth at 0.3 µM [37]: 85%

Source: ChEMBL document CHEMBL2440076, “New triarylpyrazoles as broad-spectrum anticancer agents: design, synthesis, and biological evaluation” (Eur J Med Chem, 2013)
